The test system of one assay is MIA PaCa-2 cells. Kind of assay: 1,536-well high-content imaging ALDEFLUOR assay, MIA PaCa-2. It counts as cell-based, human. Particulars: for Activity in ALDEFLUOR assay, MIA PaCa-2: semi-automated, active = high quality concentration response curve and >50% efficacy, up to 45.8 μM. The method, then:
(§1) To miniaturize the assay into a 1536-well format amenable to qHTS, we chose MIA PaCa-2 and HT-29 because of their high levels of ALDH1A1(Fig 1A). Utilizing the 8-step protocol described by Ming et al. as a starting point, we developed a “semi-automated” protocol described in S1 Table. Briefly, we plated 1,000 cells in a volume of 5 μL/well into black-optical quality clear bottom 1,536-well plates, and allowed cells to attach overnight. Culture media was subsequently removed by inverting and centrifuging plates using a plate adaptor as previously described and replaced with 5 μL of a solution of either 500 or 100 nM BAAA substrate in ALDEFLUOR buffer. To identify cells based on nuclear staining, we also included 0.5 nM Hoechst 33342 in the above buffer. […] After incubating the plate for 30 minutes at 37°C, 5% CO2, 85% RH, the remaining substrate was removed by centrifugation as above and replaced with 3 μL of ALDEFLUOR buffer. Fluorescence was subsequently imaged using the IN Cell Analyzer 2200 high-content widefield fluorescence based imager and the resulting images were quantified using the IN Cell Investigator v1.6.2 analysis software (see Experimental Procedures for analysis details).
(§2) The ALDEFLUOR kit was purchased from […] Technologies (Vancouver, Canada; #01700). Cells (5 μL) were dispensed into black, optical quality (cyclic olefin copolymer) clear bottom, medium binding TC treated 1,536-well plates (Aurora Microplates, Whitefish MT) using a Multidrop Combi dispenser (ThermoFisher) and incubated overnight (37°C, 5% CO2, 85% RH). Media was subsequently removed by centrifuging plates upside down using a plate adaptor to collect media. A solution of BAAA substrate ([…] Technologies) and Hoechst 33342 (ThermoFisher, final concentrations of 500 nM and 0.5 nM, respectively) in ALDEFLUOR buffer ([…] Technologies #01700) was dispensed onto cells using a Multidrop Combi followed by immediate transfer (23 nL) of compound or control solutions using a Wako Pin-tool (final percentage of DMSO in the cell plates was 0.5%). Unless otherwise noted, all compounds were assayed as 16-point dilutions spanning a final concentration range of 1.4 nM to […]. […] Cells were incubated for 30 minutes or the indicated amount of time at 37°C, 5% CO2, 85% RH to allow the conversion of BAAA into BAA. Supernatant was subsequently removed by centrifugation as described above, then ALDEFLUOR buffer (3 μl) was dispensed by Multidrop Combi before imaging on an IN Cell 2200 (GE Healthcare).
(§3) The above assay was modified for an online robotic screening system. After cell plating and overnight incubation, 4 μL of media were removed using a 64-tip metal aspirator head on a Wako aspirator station, leaving 1 μL remaining in the well, followed by a 4 μL dispense of BAAA and Hoechst 33342 in ALDEFLUOR buffer, for a final concentration of 500 nM and 0.5 nM, respectively. Immediately following the dispense, 23 nL of compound or control solutions were transferred using a Wako Pin-tool. Cells were incubated for 30 minutes at 37°C, 5% CO2, 85% RH, followed by a 4 μL media removal using the Wako aspirator, and a subsequent 3 μL addition of ALDEFLUOR buffer. Plates were then immediately read on the IN Cell 2200 as described below.
(§4) For images captured on the IN Cell 2200 widefield automated microscope, a 10x 0.45 NA Plan Apo objective lens was used to capture the entire well of the 1,536-well plate using standard DAPI (390/18x, 432/48m) and FITC (475/28x, 525/48m) filter sets at 50 msec and 100 msec exposures, respectively. Images were subsequently analyzed using IN Cell Investigator v1.6.2 analysis software’s canned Multi-Target Analysis algorithm (GE Healthcare). Hoechst stained nuclei were identified using top hat segmentation with a minimum area of 75 μm^2 and sensitivity of 93. […]

The test system of another assay is HT-29 cells. Kind of assay: 1,536-well high-content imaging ALDEFLUOR assay, HT-29. It counts as cell-based, human. Particulars: for IC50: read-out: Aldefluor IC50 HT-29; for Activity in ALDEFLUOR assay, HT-29: semi-automated, active = high quality concentration response curve and >50% efficacy, up to 45.8 μM. The method, then:
as §1, §2, §3, §4

Where [1] appears, read: validation set, semi-automated protocol, 16-point dilution, 1,000 cells/well, 500 nM BAAA, 30 min, read-out: Aldefluor IC50 MIA PaCa-2.
The mark [2] stands for this setting: validation set, semi-automated protocol, 16-point dilution, 1,000 cells/well, 500 nM BAAA, 30 min.
[3] abbreviates: Homo sapiens, MIA PaCa-2, 0.5 h, validation set, semi-automated protocol, 16-point dilution, 1,000 cells/well, 500 nM BAAA, 30 min, read-out: Aldefluor IC50 MIA PaCa-2.
[4] abbreviates: Homo sapiens, HT-29, 0.5 h, validation set, semi-automated protocol, 16-point dilution, 1,000 cells/well, 500 nM BAAA, 30 min.

Where two headings read alike, the source gives them in different places.

In the case of `CCOc1ccc(NCC(=O)Nc2ccc(Cl)cc2C)cc1` [CID 725345], the IC50 turned out to be 9.46 µM with MIA PaCa-2 cells (setting [1]) and 14.5 µM in the assay on HT-29 cells (setting [2]).

Turning to `CCN(CC)c1ccc(C=O)cc1` [DEAB, 4-N,N-diethylaminobenzaldehyde], the IC50 was found to be 3.44 µM in the assay with MIA PaCa-2 cells (setting [1]) and 1.69 µM in the assay on HT-29 cells (setting [2]).

Consider `CC(C)=CCCC(C)=CC=O` (mixture of isomers) [Citral], for which the IC50 in the assay with MIA PaCa-2 cells (setting [3]) is roughly 27 µM; in the assay on MIA PaCa-2 cells (setting [1]), 27.8 µM; with HT-29 cells (setting [4]) it was roughly 27 µM; in the assay on HT-29 cells (setting [2]) it was 26.6 µM.

As for `CCN(CC)C(=S)SSC(=S)N(CC)CC` [Disulfiram], the figures for the IC50 with MIA PaCa-2 cells (setting [3]) and with HT-29 cells (setting [4]) were 11 µM and 10.9 µM, respectively.

Take `COc1ccc(C(=O)CCN(C)C)cc1F` [Aldi-2]: the IC50 in the assay with MIA PaCa-2 cells (setting [1]) came out at 18 µM; in the assay with HT-29 cells (setting [2]) it was 17.5 µM.

As to `CC(C)(C)c1ccc(S(=O)(=O)/C=C/C#N)cc1` [Bay-11-7085], the IC50 was 20 µM in the assay on MIA PaCa-2 cells (setting [1]) and 14.3 µM with HT-29 cells (setting [2]).

On to `O=c1c(-c2ccc(O)cc2)coc2cc(O[C@@H]3O[C@H](CO)[C@@H](O)[C@H](O)[C@H]3O)ccc12` [Daidzin], for which the “Activity in ALDEFLUOR assay, MIA PaCa-2” value with MIA PaCa-2 cells was “tested negative”. Besides, in the assay on HT-29 cells, the “Activity in ALDEFLUOR assay, HT-29” value is recorded as “tested negative”.

For `Nc1ccccc1C(=O)CC(N)C(=O)O` (stereo not drawn) [Kynurenine], in the assay on MIA PaCa-2 cells, the “Activity in ALDEFLUOR assay, MIA PaCa-2” value is on record as “tested negative”. Also, the “Activity in ALDEFLUOR assay, HT-29” value in the assay with HT-29 cells is on record as “tested negative”.

Turning to `COc1cccc2cc(C(=O)CC3(O)C(=O)N(Cc4ccccc4)c4ccccc43)c(=O)oc12` (stereo not drawn) [CID 2929292], the “Activity in ALDEFLUOR assay, MIA PaCa-2” value in the assay on MIA PaCa-2 cells was “tested negative”. Also, in the assay with HT-29 cells, the “Activity in ALDEFLUOR assay, HT-29” value is given as “tested negative”.

For CVT-10216, in the assay on MIA PaCa-2 cells, the “Activity in ALDEFLUOR assay, MIA PaCa-2” value was “tested negative”. Besides, in the assay with HT-29 cells, the “Activity in ALDEFLUOR assay, HT-29” value was “tested negative”.

Turning to `CC(C)N(C(=O)CCl)c1ccccc1` [Propachlor], the IC50 in the assay with MIA PaCa-2 cells (Homo sapiens, MIA PaCa-2, read-out: ALDEFLUOR IC50 MIA PaCa2) is 0.3 µM.

On to `C[S+](=O)([O-])c1ccc(Cn2c3c(c4cc(F)cc(F)c42)CCCC3CC(=O)O)cc1` [L-670596], for which the IC50 in the assay on MIA PaCa-2 cells (Homo sapiens, MIA PaCa-2, retest of screen hits, 11-point dose response 0.77 nM to 45.8 μM, read-out: ALDEFLUOR IC50 MIA PaCa2) was roughly 10 µM; with MIA PaCa-2 cells (retest of screen hits, 11-point dose response 0.77 nM to 45.8 μM, read-out: ALDEFLUOR IC50 MIA PaCa2) it was 10.8 µM.

For `C#CCN(C)Cc1ccccc1` [Pargyline], the IC50 in the assay on MIA PaCa-2 cells (Homo sapiens, MIA PaCa-2, fully automated protocol-2 with two washes, read-out: IC50 of BAA signal reduction, automated protocol) was roughly 5 µM; with HT-29 cells (setting [4]), 33.5 µM. Moreover, the “Activity in ALDEFLUOR assay, MIA PaCa-2” value with MIA PaCa-2 cells is “inactive”. Besides, in the assay on HT-29 cells, the “Activity in ALDEFLUOR assay, HT-29” value is “active”.

In the case of `Cc1cc2c(C(C)C)c(O)c(O)c(C=O)c2c(O)c1-c1c(C)cc2c(C(C)C)c(O)c(O)c(C=O)c2c1O` [Gossypol], in the assay with MIA PaCa-2 cells, the “Activity in ALDEFLUOR assay, MIA PaCa-2” value is “inactive”. In addition, the IC50 in the assay with HT-29 cells (Homo sapiens, HT-29, 0.5 h) turned out to be 16.5 µM. For the same molecule, the “Activity in ALDEFLUOR assay, HT-29” value in the assay with HT-29 cells is reported as “active”.

On to `O=C1Nc2ccccc2C1=O` [indoline-2,3-dione], for which the IC50 in the assay on MIA PaCa-2 cells (setting [3]) came to 12 µM; with HT-29 cells (setting [4]), 17.8 µM.

Regarding `Cc1nc2ccccc2n1S(=O)(=O)c1ccc(F)cc1` [CB7], the “Activity in ALDEFLUOR assay, MIA PaCa-2” value with MIA PaCa-2 cells is “tested negative”. Besides, the “Activity in ALDEFLUOR assay, HT-29” value with HT-29 cells was “tested negative”.

For orientation: IC50 means the midpoint of a concentration-inhibition curve.

The record behind these values is publication PMC5271370, “A High-Content Assay Enables the Automated Screening and Identification of Small Molecules with Specific ALDH1A1-Inhibitory Activity” (PLoS ONE, 2017).
